We go through 6 compounds from patent publication US8999942B2, “Polyol modified aminoglycoside-lipid conjugates” (University of Manitoba, priority 2010, dated 2015).

Bounds are passed on as bounds.

The subject of one test is S. aureus ATCC 29213. Nature of the test: MIC, broth macrodilution (CLSI), S. aureus ATCC 29213. The class given is cell-based, Staphylococcus aureus. How it is done:
(§1) All compounds were tested against American Type Culture Collection (ATCC) reference strains as well as clinical isolates from the Canadian Intensive Care Unit (CAN-ICU) study (Zhanel, et al., 2008). […] Antibacterial activity against Gram-positive and Gram-negative microorganisms was performed via broth macrodilution tests using CLSI methodology (Clinical and Laboratory Standards Institute, 2006). The minimum inhibitory concentration (MIC) in μg/mL of the aminoglycoside-derived amphiphilic polycarbamates and polyethers were determined using established methods (Clinical and Laboratory Standards Institute, 2006) and are shown in Tables 1 and 2, respectively.

Test [1] concerns methicillin-resistant Staphylococcus aureus (MRSA) ATCC 33592. In words: MIC, broth macrodilution (CLSI), MRSA ATCC 33592. Format: cell-based. The note with it: MRSA, methicillin-resistant S. aureus ATCC 33592. As for the experimental part: as §1
Test [2] relates to S. epidermidis ATCC 14990. In words: MIC, broth macrodilution (CLSI), S. epidermidis. Format: cell-based, Staphylococcus epidermidis. The note with it: footnote ATCC 1490. How it is done: as §1
The subject of test [3] is methicillin-resistant Staphylococcus epidermidis (MRSE) CAN-ICU 61589. Nature of the test: MIC, broth macrodilution (CLSI), MRSE. The note with it: methicillin-resistant S. epidermidis, footnote (ATCC 14990). The class given is cell-based. As for the experimental part: as §1
In test [4] the test system is Streptococcus pneumoniae ATCC 49619. In words: MIC, broth macrodilution (CLSI), S. pneumoniae ATCC 49619. The class given is cell-based. How it is done: as §1
For another test, the system named is E. coli ATCC 25922. In words: MIC, broth macrodilution (CLSI), E. coli ATCC 25922. Format: cell-based. How it is done: as §1
The subject of test [5] is E. coli (Gentamicin-resistant) CAN-ICU 61714. In words: MIC, broth macrodilution (CLSI), gentamicin-resistant E. coli. The class given is cell-based. The note with it: footnote ATCC 6174 (gentamicin resistant). How it is done:
as §1

The subject of test [6] is E. coli (Amikacin MIC 32) CAN-ICU 63074. In words: MIC, broth macrodilution (CLSI), E. coli CAN-ICU 63074. The class given is cell-based. As for the experimental part: as §1
The test system of test [7] is Pseudomonas aeruginosa ATCC 27853. In words: MIC, broth macrodilution (CLSI), P. aeruginosa ATCC 27853. The class given is cell-based. How it is done: as §1
Test [8] has as its system P. aeruginosa (Gent-R) CAN-ICU 62308. Nature of the test: MIC, broth macrodilution (CLSI), P. aeruginosa CAN-ICU 62308. The class given is cell-based, Pseudomonas aeruginosa. As for the experimental part:
as §1

Test [9] concerns Stenotrophomonas maltophilia (CAN-ICU 62585). Nature of the test: MIC, broth macrodilution (CLSI), S. maltophilia. Format: cell-based. The note with it: S. maltophilia, footnote CAN-ICU 62584. As for the experimental part:
as §1

Test [10] has as its system Acinetobacter baumanni (CAN-ICU 63169). Nature of the test: MIC, broth macrodilution (CLSI), A. baumannii. The class given is cell-based. The note with it: A. baumannii CAN-ICU 63169. How it is done:
as §1

The next test concerns S. pneumoniae ATCC 13883. Nature of the test: MIC, broth macrodilution (CLSI), S. pneumoniae ATCC 13883. The class given is cell-based. How it is done:
as §1

In the case of `NCC1OC(OC2C(N)CC(N)C(OC(=O)Nc3ccccc3)C2OC(=O)Nc2ccccc2)C(N)C(OC(=O)Nc2ccccc2)C1OC(=O)Nc1ccccc1.O=C(O)C(F)(F)F.O=C(O)C(F)(F)F.O=C(O)C(F)(F)F.O=C(O)C(F)(F)F` (stereo not drawn) [Compound 10], the “Minimal Inhibitory Concentration (MIC)” value in the test with S. aureus ATCC 29213 is 16 µg/mL; in [1], 16 µg/mL; in test [2], 8 µg/mL; in [3] it was 8 µg/mL; in [4], above 256 µg/mL; with E. coli ATCC 25922, 32 µg/mL. Also, the “Minimal Inhibitory Concentration (MIC)” value in [5] was determined as 32 µg/mL; in [6], 32 µg/mL; in test [7] it was 128 µg/mL; in [8], 128 µg/mL; in [9], 64 µg/mL; in [10] it was 256 µg/mL. The “Minimal Inhibitory Concentration (MIC)” value in the test on S. pneumoniae ATCC 13883 is 64 µg/mL.

As for Gentamicin [reference compound], the “Minimal Inhibitory Concentration (MIC)” value in the test with S. aureus ATCC 29213 was determined as 1 µg/mL; in test [1] it was 2 µg/mL; in test [2], 0.25 µg/mL; in test [3], 32 µg/mL; in test [4], 4 µg/mL; with E. coli ATCC 25922, 1 µg/mL. Further, the “Minimal Inhibitory Concentration (MIC)” value in test [5] is 128 µg/mL; in test [6], 8 µg/mL; in test [7], 8 µg/mL; in test [8], 128 µg/mL; in [9], above 512 µg/mL; in test [10], 128 µg/mL. In the test with S. pneumoniae ATCC 13883, the “Minimal Inhibitory Concentration (MIC)” value turned out to be 0.25 µg/mL.

Consider `CN(C)c1ccc(NC(=O)OCC2OC(OC3C(N)CC(N)C(OC4OC(CN)C(OC(=O)Nc5ccc(N(C)C)cc5)C(OC(=O)Nc5ccc(N(C)C)cc5)C4OC(=O)Nc4ccc(N(C)C)cc4)C3OC(=O)Nc3ccc(N(C)C)cc3)C(OC(=O)Nc3ccc(N(C)C)cc3)C(N)C2OC(=O)Nc2ccc(N(C)C)cc2)cc1.O=C(O)C(F)(F)F.O=C(O)C(F)(F)F.O=C(O)C(F)(F)F.O=C(O)C(F)(F)F.O=C(O)C(F)(F)F.O=C(O)C(F)(F)F.O=C(O)C(F)(F)F.O=C(O)C(F)(F)F.O=C(O)C(F)(F)F.O=C(O)C(F)(F)F.O=C(O)C(F)(F)F` (stereo not drawn) [Compound 7], for which the “Minimal Inhibitory Concentration (MIC)” value with S. aureus ATCC 29213 was 16 µg/mL; in test [1], 32 µg/mL; in test [2] it was 16 µg/mL; in [3], 32 µg/mL; in test [4], above 256 µg/mL; with E. coli ATCC 25922, 256 µg/mL. In addition, the “Minimal Inhibitory Concentration (MIC)” value in test [5] is 256 µg/mL; in [6], 256 µg/mL; in test [7], above 256 µg/mL; in [8], 256 µg/mL; in test [9], above 256 µg/mL; in test [10] it was above 256 µg/mL. Further, the “Minimal Inhibitory Concentration (MIC)” value in the test on S. pneumoniae ATCC 13883 was above 256 µg/mL.

With `NCC1OC(OC2C(N)CC(N)C(OC3OC(COCc4ccccc4)C(OCc4ccccc4)C(N)C3OCc3ccccc3)C2OCc2ccccc2)C(OCc2ccccc2)C(OCc2ccccc2)C1OCc1ccccc1.O=C(O)C(F)(F)F.O=C(O)C(F)(F)F.O=C(O)C(F)(F)F.O=C(O)C(F)(F)F` (stereo not drawn) [Compound 15], the “Minimal Inhibitory Concentration (MIC)” value stood at 8 µg/mL with S. aureus ATCC 29213; 8 µg/mL in test [1]; 4 µg/mL in test [2]; 8 µg/mL in [3]; 32 µg/mL in [4]; 32 µg/mL in the test on E. coli ATCC 25922. Moreover, the “Minimal Inhibitory Concentration (MIC)” value in test [5] was 32 µg/mL; in [6], 16 µg/mL; in test [7] it was above 64 µg/mL; in test [8] it was above 64 µg/mL; in test [9] it was above 64 µg/mL; in [10] it was above 64 µg/mL. Moreover, the “Minimal Inhibitory Concentration (MIC)” value in the test on S. pneumoniae ATCC 13883 was above 64 µg/mL.

For `NCCC(OCc1ccc(Cl)cc1)C(=O)NC1CC(N)C(OC2OC(CN)C(OCc3ccc(Cl)cc3)C(OCc3ccc(Cl)cc3)C2OCc2ccc(Cl)cc2)C(OCc2ccc(Cl)cc2)C1OC1OC(COCc2ccc(Cl)cc2)C(OCc2ccc(Cl)cc2)C(N)C1OCc1ccc(Cl)cc1.O=C(O)C(F)(F)F.O=C(O)C(F)(F)F.O=C(O)C(F)(F)F.O=C(O)C(F)(F)F` (stereo not drawn) [Compound 19], the “Minimal Inhibitory Concentration (MIC)” value was 128 µg/mL in the test with S. aureus ATCC 29213; 128 µg/mL in [1]; 128 µg/mL in [2]; 64 µg/mL in test [3]; 128 µg/mL in [4]; above 256 µg/mL in the test on E. coli ATCC 25922. Besides, the “Minimal Inhibitory Concentration (MIC)” value in test [5] is above 256 µg/mL; in test [6], 256 µg/mL; in [7], above 256 µg/mL; in test [8], above 256 µg/mL; in test [9] it was above 256 µg/mL; in [10], above 256 µg/mL. The “Minimal Inhibitory Concentration (MIC)” value in the test with S. pneumoniae ATCC 13883 is above 256 µg/mL.

Consider `NCC1OC(OC2C(N)CC(N)C(OC(=O)Nc3ccc(Cl)cc3)C2OC2OC(COC(=O)Nc3ccc(Cl)cc3)C(OC3OC(CN)C(OC(=O)Nc4ccc(Cl)cc4)C(OC(=O)Nc4ccc(Cl)cc4)C3N)C2OC(=O)Nc2ccc(Cl)cc2)C(N)C(OC(=O)Nc2ccc(Cl)cc2)C1OC(=O)Nc1ccc(Cl)cc1.O=C(O)C(F)(F)F.O=C(O)C(F)(F)F.O=C(O)C(F)(F)F.O=C(O)C(F)(F)F.O=C(O)C(F)(F)F.O=C(O)C(F)(F)F` (stereo not drawn) [Compound 2], for which the “Minimal Inhibitory Concentration (MIC)” value with S. aureus ATCC 29213 was 64 µg/mL; in test [1], 64 µg/mL; in test [2], 16 µg/mL; in test [3] it was 32 µg/mL; in [4], 128 µg/mL; in the test on E. coli ATCC 25922 it was above 256 µg/mL. Moreover, the “Minimal Inhibitory Concentration (MIC)” value in test [5] was above 256 µg/mL; in [6], 256 µg/mL; in [7], above 256 µg/mL; in [8] it was 256 µg/mL; in [9], 128 µg/mL; in test [10] it was above 256 µg/mL. Besides, the “Minimal Inhibitory Concentration (MIC)” value with S. pneumoniae ATCC 13883 is 256 µg/mL.
